# Experimental data reported in PubChem BioAssay (NCI).
#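 Tested at 5 concentrations; 48 h exposure; 96-well plates; endpoints linearly interpolated, else capped at highest concentration. Abbreviation: GI50, concentration required for 50% inhibition of growth. TGI: total growth inhibition.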
# What was measured:
# Test in all cases: inhibition of tumour cell growth, NCI panel, 48 h
# HOP-18 NSCLC = test system: HOP-18 NSCLC
# UO-31 renal = test system: UO-31 renal
# A549 NSCLC = test system: A549 NSCLC
# COLO 205 colon = test system: COLO 205 colon
# HCT-116 colon = test system: HCT-116 colon
# A498 renal = test system: A498 renal
# SNB-75 CNS = test system: SNB-75 CNS
# SK-MEL-28 melanoma = test system: SK-MEL-28 melanoma
# DLD-1 colon = test system: DLD-1 colon
# SNB-78 CNS = test system: SNB-78 CNS
# M19-MEL melanoma = test system: M19-MEL melanoma
# MOLT-4 leukemia = test system: MOLT-4 leukemia
Structure (SMILES),TGI (HOP-18 NSCLC) [µM],TGI (UO-31 renal) [µM],TGI (A549 NSCLC) [µM],TGI (COLO 205 colon) [µM],TGI (HCT-116 colon) [µM],TGI (A498 renal) [µM],TGI (SNB-75 CNS) [µM],TGI (SK-MEL-28 melanoma) [µM],TGI (DLD-1 colon) [µM],TGI (SNB-78 CNS) [µM],TGI (M19-MEL melanoma) [µM],TGI (MOLT-4 leukemia) [µM],GI50 (UO-31 renal) [µM],GI50 (A549 NSCLC) [µM],GI50 (COLO 205 colon) [µM],GI50 (HCT-116 colon) [µM],GI50 (A498 renal) [µM],GI50 (SNB-75 CNS) [µM],GI50 (SK-MEL-28 melanoma) [µM],GI50 (MOLT-4 leukemia) [µM]
O=C([O-])c1ccccc1Nc1ccccc1C(=O)[O-].[OH3+].[Zn+2],> 75.9,> 63.1,> 100,> 75.3,> 78.2,44.7,37.2,40.7,> 83.7,> 87.1,50.1,99.8,,,,,,,,
COC(=O)CC(C(C(=O)OCc1ccccc1)C(C)O)N1C(=O)OCC1c1ccccc1 (stereo not drawn),,90.6,> 100,> 100,> 100,> 100,89.8,> 100,> 100,,> 100,> 100,,,,,,,,
O=CC1=CCCN(CCc2c[nH]c3ccccc23)C1,109,,> 393,149,80.4,,,41.1,111,,152,> 393,,,,,,,,
CC1=C(C(=O)O)N2C(=O)[C@@H](NC(=O)C(c3ccccc3)N3CSC(=S)N(C(C)C)C3)C2SC1 (stereo partly drawn),> 100,> 100,,> 100,> 100,> 100,> 100,> 100,> 100,> 100,> 100,> 100,,,,,,,,
Cc1cn(CCCCOC(=O)NC(CCCN=C(N)N)C(=O)O)c(=O)[nH]c1=O (stereo not drawn),,> 100,> 100,> 100,> 100,> 100,> 100,> 100,,,,> 100,,,,,,,,
C/C1=C\[C@@H](C)C[C@@H](C)OC(=O)[C@@H](C)NC(=O)[C@H](Cc2ccc(O)c(Br)c2)N(C)C(=O)CNC(=O)[C@H](C)C1,,0.127,> 100,> 100,> 55.2,< 0.021,< 0.01,17.3,,,,> 64.1,,,,,,,,
COC1CC(O[C@H]2CC[C@@]3(C)C(=CCC4(O)C3CCC35C(=O)OC6(C)O[C@@]43CCC65)C2)OC(C)C1O (stereo partly drawn),> 100,> 100,> 100,> 100,> 100,> 100,> 100,> 100,> 100,> 100,> 100,> 100,,,,,,,,
Cc1cc(-c2nc3ccc(F)cc3s2)ccc1NC(=O)C(N)CCCCN (stereo not drawn),,16.1,5.54,14.8,10.3,24,12.6,34.8,,,,7.94,,,,,,,,
OC(c1cc2ccccc2[nH]1)C(O)(c1cc2ccccc2[nH]1)c1cc2ccccc2[nH]1 (stereo not drawn),,,63,8.85,27.3,,,55.1,48,,23.1,> 245,,,,,,,,
C[C@H](CCC(=O)O)[C@H]1CC[C@H]2[C@@H]3[C@H](O)[C@H](O)[C@@H]4C[C@H](O)CC[C@]4(C)[C@H]3CC[C@]12C,,> 100,> 100,> 100,> 100,> 100,> 100,> 100,,,,> 100,,,,,,,,
CS(=O)(=O)c1ccc(C(=O)O[C@@H]2C(=O)N3CC[C@H]4OC(O)[C@@H]2[C@H]43)cc1 (stereo partly drawn),,> 100,> 100,> 100,> 100,> 100,> 100,> 100,,,,> 100,,,,,,,,
CC1(C)C(CBr)=[N+]([O-])C(C)(C)N1O,,> 10,> 10,3.75,5.27,> 10,> 10,> 10,,,,> 7.43,,,,,,,,
CCOC(=O)c1ccc(Nc2nc3ccccc3n3cccc23)cc1,,> 100,> 100,> 100,> 100,> 100,48.3,> 100,,,,> 100,,,,,,,,
Cc1ccc(N2C=Nn3c(nc4sc5c(c4c3=O)CCCC5)C2)cc1,,> 100,> 100,> 100,> 100,> 100,> 100,> 100,,,,> 100,,,,,,,,
N=C1c2ccccc2C(=O)c2c(NCCNCCO)ccc(O)c21,54.8,32.7,22.6,16.9,15,33.8,49.3,23.2,22.3,> 60,17.3,10.8,,,,,,,,
CC(=O)/C(=C/N1CC(=O)NC1=S)C(=O)Nc1ccccc1C,,> 100,> 100,> 100,> 100,> 100,> 100,> 100,,,,> 100,,,,,,,,
Nc1ccc2nc3n(c2c1)C(c1c(F)cccc1F)SC3 (stereo not drawn),,> 100,> 100,> 100,> 100,> 100,> 100,> 100,,,,> 100,,,,,,,,
CCOP(=O)(OCC)/C(=C\n1ccc(=O)[nH]c1=S)C(=O)OC,,> 100,> 100,> 100,> 100,> 100,> 100,> 100,,,,> 100,,,,,,,,
CCOC(=O)C(=CNc1ccc(S(N)(=O)=O)cc1)C(=O)OCC,,> 100,> 100,> 100,> 100,> 100,> 100,> 100,,,,> 100,,,,,,,,
Cc1cc(OP2(=O)NCc3ccncc3O2)ccc1Cl (stereo not drawn),,> 100,> 100,> 100,> 100,> 100,> 100,> 100,,,,> 100,,,,,,,,
COc1c(O)cc2c(c1O)C(=O)C(Cc1ccc(O)cc1)CO2 (stereo not drawn),,> 100,> 100,> 100,> 100,> 100,91.9,> 100,,,,> 100,,,,,,,,
CC(C)(Oc1ccc2c(=O)cc(-c3ccc(Cl)cc3)oc2c1)C(=O)Nc1c(Cl)cccc1Cl,> 100,> 100,> 100,,> 100,> 100,,> 100,> 100,> 100,> 100,> 100,,,,,,,,
Cc1c(C)c(S(=O)(=O)N(CCCN)OCCCN)c(C)c2c1OC(C)(C)CC2,,31.5,29.6,32.1,30,26.2,23.4,28.5,,,,14.9,,,,,,,,
CC1=C(O)C(=O)C2C(=O)C1C(C)C2c1ccccc1 (stereo not drawn),,> 100,> 100,> 100,,> 100,> 100,> 100,> 100,> 100,> 100,> 100,,,,,,,,
CCCCC1Nc2ccccc2-c2ccnc(Cl)c21 (stereo not drawn),,55.8,> 100,36,32.3,46.4,52.3,46.5,,,,50.9,,,,,,,,
O=C(N/N=C\c1ccc(N(CCCl)CCCl)cc1)c1cccnc1,,> 100,> 100,> 100,> 100,> 100,> 100,> 100,,,,> 100,14.1,37.5,> 100,51,42.2,33.7,> 100,6.95
CC12CP(=O)(O)CC1C2(Cl)Cl (stereo not drawn),,> 100,> 100,> 100,> 100,> 100,> 100,> 100,,,,> 100,,,,,,,,
CC(C)(C)c1ccc(NS(=O)(=O)c2ccc(N)cc2)cc1,,73.5,> 100,29.6,34.7,46.4,92.7,63.7,,,,34.5,,,,,,,,
C=C(C)[C@@]12C[C@H](OC(=O)[C@H](O)[C@@H](NC(=O)c3ccccc3)c3ccccc3)C(C)=C1[C@@H](OC(C)=O)C(=O)[C@@]1(C)C([C@@H]2OC(=O)c2cc(F)cc(F)c2)C2(OC(C)=O)CO[C@@H]2C[C@@H]1O (stereo partly drawn),,> 10,> 6.61,0.392,1.22,3.03,0.973,> 10,,,,1.24,,,,,,,,
O=C1C=CC(=O)c2c(O)c(NCCN3CCOCC3)c(Cl)c(O)c21,,3.96,4.96,3.01,3.17,> 10,3.27,2.98,,,,3.89,,,,,,,,
